BigSolDB 2.1

O=C(O)c1ccccc1O
solubility (mole fraction)
Conditions	278.15 K	283.15 K	288.15 K	293.15 K	298.15 K	303.15 K	308.15 K	313.15 K	318.15 K
in ethanol	0.108	0.117	0.126	0.136	0.145	0.157	0.17	0.182	0.197
in n-butanol	0.106	0.116	0.126	0.137	0.148	0.16	0.174	0.186	0.201
in n-heptanol	0.117	0.128	0.138	0.148	0.16	0.171	0.185	0.197	0.21
in n-hexanol	0.116	0.127	0.137	0.146	0.158	0.169	0.182	0.195	0.209
in n-pentanol	0.113	0.123	0.132	0.144	0.155	0.166	0.18	0.192	0.206
in n-propanol	0.102	0.111	0.12	0.131	0.143	0.154	0.168	0.181	0.196
